Activity calls are given as the source filed them. The rule behind the calls is not given here.
What follows are compounds tested on CHOP reporter cell assay, percent of control (assay: CHOP reporter inhibitor potency, dose response, cell-based (AID 504322);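 note: CHO cells carrying a CHOP reporter stimulated with tunicamycin to induce ER stress; potency is for inhibition of the stress-induced reporter signal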).

Row | SMILES | IC50
1 | OC(COCC(F)(F)C(F)(F)C(F)(F)C(F)F)Cn1c2ccccc2c2ccccc21 (stereo not drawn) | 2.39 µM
2 | CC(C)(C)C1C/C(=C/c2ccccn2)C(=O)/C(=C/c2ccccn2)C1 (stereo not drawn) | 0.3 µM
3 | O/N=C(\c1ccc(Cl)cc1Cl)c1ncc(C(F)(F)F)cc1Cl | 2.2 µM (inactive)
4 | O=C(Nc1ccc([N+](=O)[O-])cc1)Nc1nc(-c2ccc(Cl)s2)cs1 | 2.28 µM
5 | C=CCc1cc(C)ccc1OCC(O)CN1CCN(c2ccccc2)CC1 (stereo not drawn) | 3.94 µM (inactive)
6 | CCCCCCn1c(CN2CCN(Cc3ccccc3)CC2)nc2c1c(=O)n(C)c(=O)n2C | 6.9 µM (inactive)
7 | COc1ccc2c3c(cccc13)C(=O)N(O)C2=O | 2.57 µM
8 | CC(C)CCN(C(=O)Cc1ccc(Cl)c(Cl)c1)c1c(N)n(Cc2ccccc2)c(=O)[nH]c1=O | 5.74 µM (inactive)
9 | Cc1ccc(-c2nc(C(Cl)Cl)c3ccccc3n2)cc1 | 2.08 µM
10 | C[C@H](NC(=O)c1[nH]cnc1C(=O)Nc1ccc(CNC(=O)OC(C)(C)C)cc1)C(=O)OC(C)(C)C | > 10 µM (inactive)
11 | CCSc1nc2ccccc2n1C(=O)/C=C/c1ccc(OC)c(OC)c1 | 4.97 µM
12 | O=C(O)CSCC(=O)Nc1ccc(C2CCCCC2)cc1 | 0.54 µM
13 | COc1ccc(/C=C2\SC(=S)N(CCCC(=O)Nc3ccc(O)cc3)C2=O)cc1 | < 0.16 µM
14 | Cc1ccc2nc(Nc3ccc4[nH]c(=O)[nH]c4c3)c(-n3nc(C)cc3C)nc2c1 | 6.47 µM
15 | Cc1ccc(NC(=O)NC(=O)CN2C(=O)NC3(CCCCCCC3)C2=O)c(C)c1 | 9.53 µM (inactive)
16 | Cc1ccc(NC(=O)c2ccc(C#CC3(O)CCCCC3)cc2)cc1C | > 10 µM (inactive)
17 | O=C(OCn1ncc(Cl)c(Cl)c1=O)c1ccc(C(F)(F)F)cc1 | 9.59 µM (inactive)
18 | CCc1ccc2c(c1)C(c1ccc([N+](=O)[O-])cc1)=NNC(c1ccc(C)cc1)=N2 | > 10 µM (inactive)
19 | Cc1cc(Cl)ccc1OCc1n[nH]c(=S)n1C1CCCCC1 | > 10 µM (inactive)
20 | CC1=C/C(=N\OS(=O)(=O)c2ccccc2)C(C)=CC1=O | 0.9 µM
21 | COC(=O)C[C@]1(C(=O)OC)CN(C#N)N(c2ccc(Cl)cc2)C12c1ccccc1-c1ccccc12 | 2.16 µM
22 | CCOc1cc(S(=O)(=O)Nc2ccc(CC)cc2)ccc1Cl | 4.48 µM (inactive)
23 | CCOC(=O)C1=C(O)/C(=C/c2ccc(CNC(=O)C(=O)Nc3ccc(C)cc3)o2)N=C1C | > 10 µM (inactive)

Row | SMILES | IC50
24 | Cc1cc(Cl)n2c(nc3cc(F)c(F)cc32)c1C#N | > 10 µM (inactive)
25 | CC(C)c1ccc(NC(=O)CSc2nc(-c3ccccc3F)nc3nc[nH]c23)cc1 | 9.99 µM (inactive)
26 | Nc1c(S(=O)(=O)c2cccc(Cl)c2)c2nc3ccccc3nc2n1/N=C/c1ccc(O)c(O)c1 | 4.97 µM (inactive)
27 | Cc1cc(Cl)n2c(nc3ccccc32)c1C#N | > 10 µM (inactive)
28 | COc1ccc(NS(=O)(=O)c2ccc(O)c(NC(=O)c3cc4c(C)nn(-c5ccc(F)cc5)c4s3)c2)cc1 | 6.99 µM (inactive)
29 | COc1ccc(OCc2n(CC(=O)OC3CC(C)CCC3C(C)C)c3ccccc3[n+]2C)cc1 (stereo not drawn) | > 10 µM (inactive)
30 | Cc1sc2ncnc(N3CCCCC3C)c2c1C (stereo not drawn) | > 10 µM (inactive)
31 | O=C(Nc1ccccc1)Nc1cc(OCC(F)(F)F)cc(OCC(F)(F)F)c1 | 2.34 µM
32 | COc1ccc(C(=O)NC(=O)Nc2cc(C)ccn2)cc1 | 9.99 µM (inactive)
33 | C/C(N)=C(/C#N)C(=O)COC(=O)C1CCC(C(C)(C)C)CC1 (stereo not drawn) | 2.41 µM
34 | Cc1cccc(Nc2nc(N)c([N+](=O)[O-])c(N3CC(C)CC(C)C3)n2)c1 (stereo not drawn) | > 10 µM (inactive)
35 | O=C(Nc1cccc(F)c1)N(Cc1ccc(Cl)cc1)CC(O)C(F)(F)F (stereo not drawn) | 3.58 µM
36 | Cc1nn(C(C)(C)C)c(C)c1/C=N/OC(=O)Nc1ccc(Cl)cc1 | < 0.16 µM
37 | Cc1ccc(/C=N/NC(=O)CCCOc2ccc(Cl)cc2Cl)cc1 | 7.92 µM (inactive)
38 | CCOc1cc(/C=N/NC(=O)Cc2ccc(C(F)(F)F)cc2[N+](=O)[O-])c(Br)cc1OC | 4.6 µM
39 | Cc1ccc(N=C2SC(C(=O)Nc3ccc(OC(F)(F)F)cc3)C(N)=C2C(=O)Nc2c(C)cc(C)cc2C)cc1 (stereo not drawn) | > 10 µM (inactive)
40 | O=C(NCc1nc(-c2ccc(C(F)(F)F)cc2)no1)Nc1ccc(OC(F)(F)F)cc1 | 2.03 µM
41 | CCCCCCn1c(-c2ccco2)nc2oc3cc(OC)ccc3c(=O)c2c1=O | 9.42 µM (inactive)
42 | CCC1CCCCN1S(=O)(=O)c1ccc(C(=O)Nc2nnc(-c3ccccc3Cl)o2)cc1 (stereo not drawn) | 9.92 µM (inactive)
43 | Cc1nn(CCC#N)c2nc(-c3ccccc3)cc(C(F)(F)F)c12 | 4 µM (inactive)
44 | CC(C)=C1C2CCC1C(C(=O)Nc1sc(C)c(-c3ccc(C(C)C)cc3)c1C(N)=O)C2C(=O)O (stereo not drawn) | 4.8 µM
45 | Cc1ccc(OCC(=O)N2CCN(c3nnc(-c4ccc(C)cc4)c4ccccc34)CC2)cc1 | 8.38 µM (inactive)
46 | CCN1C/C(=C/c2ccc(OC)c(O)c2)C(=O)/C(=C/c2ccc(OC)c(O)c2)C1 | 5.33 µM (inactive)

Row | SMILES | IC50
47 | CCOC(=O)c1ccc(NC(=O)c2nc[nH]c2C(=O)N[C@@H](C)C(=O)OC(C)(C)C)cc1 | 5.92 µM (inactive)
48 | Cn1c(=O)c(C(=O)Nc2ncccc2O)c(O)c2ccccc21 | 9.46 µM (inactive)
49 | COc1ccc(-c2nn(-c3ccccc3)cc2/C=N/NC(=O)c2ccc(Br)o2)cc1 | 9.29 µM (inactive)
50 | COc1ccc2c(C)nc(Nc3nc(C)c(C)c(=O)[nH]3)nc2c1 | 9.72 µM (inactive)
51 | O=C1NC[C@@H](Cc2cccc3ccccc23)N(CCc2cc(C(F)(F)F)cc(C(F)(F)F)c2)C1=O | 9.02 µM (inactive)
52 | COc1cc(-c2nc3c(c(C)nn3-c3ccccc3)c3cc(OC)c(OC)cc23)ccc1O | 9.85 µM (inactive)
53 | CCC(=O)N1N=C(c2c(-c3ccccc3)c3cc(Cl)ccc3[nH]c2=O)CC1c1ccco1 (stereo not drawn) | 8.96 µM (inactive)
54 | Cc1cc(C2=NNC(=NC3CC3)SC2)c(C)n1-c1ccccc1 | < 0.16 µM (inactive)
55 | Cc1[nH]n(-c2ccccc2)c(=O)c1/C=C1/C=c2ccccc2=N1 | 9.74 µM (inactive)
56 | CC(C)c1ccc(C2C3CSCC=C3C(C#N)=C(N)C2(C#N)C#N)cc1 (stereo not drawn) | 9.55 µM (inactive)
57 | Oc1ccc(Br)cc1-c1cc(-c2ccccc2F)[nH]n1 | > 10 µM (inactive)
58 | C/C(=N\NC(=O)COc1ccc(C(C)(C)C)cc1)c1ccc(N2CCOCC2)cc1 | 9.41 µM (inactive)
59 | CCOC(=O)C1=C(C)NC(C)=C(C(=O)OCC)C1/C=C/c1ccccc1 | > 10 µM (inactive)
60 | O=C(Nc1nccs1)c1cc2c(s1)CCCCC2 | > 10 µM (inactive)
61 | O=S(=O)(Nc1cc(Sc2cccc3cccnc23)c(O)c2ccccc12)c1ccc(F)cc1 | 2.72 µM
62 | CN1CC(c2ccccc2)C2(SC(=S)N(Cc3ccco3)C2=O)C12C(=O)Nc1ccccc12 (stereo not drawn) | > 10 µM (inactive)
63 | O=C(On1c(-c2ccccc2)nc2ccccc2c1=O)c1ccco1 | > 10 µM (inactive)
64 | Cc1nc(SCC(=O)Nc2ccc(F)cc2)c(C#N)c(C)c1CC(=O)c1ccc(Br)cc1 | > 10 µM (inactive)
65 | O=C(NC(Nc1nc2ccc([N+](=O)[O-])cc2s1)(C(F)(F)F)C(F)(F)F)c1ccccc1Cl | 0.87 µM
66 | O=C(Nc1ccc(Br)c(C(F)(F)F)c1)c1ccc(C(F)(F)F)cc1 | 9.82 µM (inactive)
67 | O=C(Nc1cccc(Cl)c1Cl)c1cc(S(=O)(=O)NCCc2ccccc2)ccc1F | 9.57 µM (inactive)
68 | Cc1ccc(-c2nnc(-c3ccc(NC(=O)Cc4cccs4)cc3)o2)cc1 | 8.41 µM (inactive)

Reference: PubChem BioAssay AID504322 (Emory University Molecular Libraries Screening Center, 2011)
